Source: patent US8940769B2, “Biaryl benzoimidazole derivatives and pharmaceutical composition comprising the same” (Daewoong Pharmaceutical Co., Ltd., priority 2006, dated 2015)

Target: T1, human vanilloid receptor VR-1 (hVR1) (Homo sapiens, UniProt Q8NER1)
T1 construct: expressed in transfected cells; host or cells: HEK293 Tet-on cells (hVR1-HEK293), expression induced with doxycycline
Experiment: Calcium influx test of vanilloid receptor (capsaicin-induced, Fluo-3/AM, hVR1-HEK293 cells)
Type: cell-based
Details: calcium influx induced by 1 μM capsaicin, read-out: Inhibitory effect IC50 (nM) on calcium influx
Procedure: In order to measure an activity of the biaryl benzoimidazole derivative of the invention as an antagonist, a calcium influx test was performed.
An hVR1-HEK293 cell line is a cell line, in which a Human Embryonic Kidney (HEK) 293 Tet-on cell is transformed with a human vanilloid-1 gene (pTRE2hyg-hVR1, 7.8 kb). The cell line can regulate a VR-1 expression, depending on the administration of a tetracycline analogue, doxycycline. At two days before the calcium influx test, the cell line was cultured in media containing doxycycline to induce the VR-1 expression, and then used. First, the hVR1-HEK293 cells were cultured in T75 flasks to have a density of about 80%, and then detached from the bottom of the flasks by using trypsin. The detached cells were centrifuged and collected. Then, the cells were suspended in media containing 1 μg/mL doxycycline, and diluted to have a concentration of 2×10^5 to 4×10^5 cells/mL. 100 μL of the suspended cells were added to each well of 96-well black plate, cultured at 37° C. and 5% CO2 cell incubator for two days, and then used in the calcium influx test.
The compound was dissolved in dimethyl sulfoxide (DMSO), and then used for the calcium influx test.
In order to measure the calcium influx […], the cells were cultured in a solution containing Fluo-3/AM, which is a calcium indicator, at 37° C. for 90 minutes, so as to be permeated by a fluorescent dye. […] 193 μL D-PBS were added to each well, and then the compound was added thereto in various concentrations. To measure an activity as an antagonist, the cells were treated with 1 μM capsaicin to stimulate the calcium influx. The inhibitory effect of the compound when calcium influx was induced by 1 μM capsaicin was measured depending on its concentration using a fluorescence spectrometer, and the obtained data were substituted into a hill equation to analyze the values.
The inhibitory effect on calcium influx was measured with a single concentration of the compounds of the invention (200 nM), and the result thereof are shown in Table 2.

T1 sequence (Q8NER1 whole entry): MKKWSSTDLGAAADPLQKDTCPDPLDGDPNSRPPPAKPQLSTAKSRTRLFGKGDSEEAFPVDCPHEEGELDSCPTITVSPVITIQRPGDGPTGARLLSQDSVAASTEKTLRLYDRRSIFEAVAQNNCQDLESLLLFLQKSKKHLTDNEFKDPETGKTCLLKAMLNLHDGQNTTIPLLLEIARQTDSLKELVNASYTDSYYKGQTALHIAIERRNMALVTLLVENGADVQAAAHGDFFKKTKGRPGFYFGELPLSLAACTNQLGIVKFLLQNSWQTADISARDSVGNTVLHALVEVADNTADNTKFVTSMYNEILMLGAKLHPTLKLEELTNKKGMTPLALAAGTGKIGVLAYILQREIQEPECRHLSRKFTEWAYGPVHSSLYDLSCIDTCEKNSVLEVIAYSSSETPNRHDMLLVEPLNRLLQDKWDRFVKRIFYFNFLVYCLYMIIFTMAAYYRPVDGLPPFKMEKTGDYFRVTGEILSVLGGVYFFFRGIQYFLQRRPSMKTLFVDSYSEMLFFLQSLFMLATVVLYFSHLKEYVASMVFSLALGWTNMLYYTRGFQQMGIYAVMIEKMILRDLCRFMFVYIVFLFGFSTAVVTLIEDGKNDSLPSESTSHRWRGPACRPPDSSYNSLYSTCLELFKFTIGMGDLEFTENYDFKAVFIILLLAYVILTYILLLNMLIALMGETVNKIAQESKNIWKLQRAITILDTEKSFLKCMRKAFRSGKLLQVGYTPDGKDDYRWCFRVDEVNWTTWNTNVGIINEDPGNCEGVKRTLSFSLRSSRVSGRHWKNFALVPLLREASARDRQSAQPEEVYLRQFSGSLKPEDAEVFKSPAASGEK

IC50 | Compound
26.2 nM | COC(=O)c1cnc(-c2ccc(-c3nc4ccc(C(C)(C)C)cc4[nH]3)nc2)c(Cl)c1 [Compound 74, 6′-(6-tert-butyl-1H-benzoimidazol-2-yl)-3-chloro-[2,3′]bipyridinyl-5-carboxylic acid methyl ester]
338 nM | OCc1cnc(-c2ccc(-c3nc4ccc(C(F)(F)F)cc4[nH]3)nc2)c(Cl)c1 [Compound 89, [3-chloro-6′-(6-trifluoromethyl-1H-benzoimidazol-2-yl)-[2,3′]bipyridinyl-5-yl]-methanol]
158 nM | CC(C)(C)c1ccc2nc(-c3ccc(-c4ncc(CO)cc4Cl)cn3)[nH]c2c1 [Compound 90, [6′-(6-tert-butyl-1H-benzoimidazol-2-yl)-3-chloro-[2,3′]bipyridinyl-5-yl]-methanol]
517 nM | OCc1cnc(-c2ccc(-c3nc4ccc(Br)cc4[nH]3)nc2)c(Cl)c1 [Compound 91, [6′-(6-bromo-1H-benzoimidazol-2-yl)-3-chloro-[2,3′]bipyridinyl-5-yl]-methanol]
129 nM | OCc1cnc(-c2ccc(-c3nc4c(Br)cc(C(F)(F)F)cc4[nH]3)nc2)c(Cl)c1 [Compound 93, [6′-(4-bromo-6-trifluoromethyl-1H-benzoimidazol-2-yl)-3-chloro-[2,3′]bipyridinyl-5-yl]-methanol]

Same assay, conditions: single concentration of compound 200 nM, 1 μM capsaicin, read-out: Inhibitory effect (%) on calcium influx

Compound | inhibition at 0.2 µM
CCNC(=O)c1cnc(-c2ccc(-c3nc4c(Br)cc(C(F)(F)F)cc4[nH]3)cc2)c(Cl)c1 [Compound 65, 6-[4-(4-bromo-6-trifluoromethyl-1H-benzoimidazol-2-yl)-phenyl]-5-chloro-N-ethyl-nicotinamide] | 30.9%
C=Cc1cnc(-c2ccc(-c3nc4ccc(C(F)(F)F)cc4[nH]3)nc2)c(Cl)c1 [Compound 66, 3-chloro-6′-(6-trifluoromethyl-1H-benzoimidazol-2-yl)-5-vinyl-[2,3′]bipyridinyl] | 0.2%
C=Cc1cnc(-c2ccc(-c3nc4ccc(C(C)(C)C)cc4[nH]3)nc2)c(Cl)c1 [Compound 67, 6′-(6-tert-butyl-1H-benzoimidazol-2-yl)-3-chloro-5-vinyl-[2,3′]bipyridinyl] | -8.8%
C=Cc1cnc(-c2ccc(-c3nc4ccc(Br)cc4[nH]3)nc2)c(Cl)c1 [Compound 68, 6′-(6-bromo-1H-benzoimidazol-2-yl)-3-chloro-5-vinyl-[2,3′]bipyridinyl] | -2.2%
C=Cc1cnc(-c2ccc(-c3nc4ccc(Cl)cc4[nH]3)nc2)c(Cl)c1 [Compound 69, 3-chloro-6′-(6-chloro-1H-benzoimidazol-2-yl)-5-vinyl-[2,3′]bipyridinyl] | 11.3%
C=Cc1cnc(-c2ccc(-c3nc4c(Br)cc(C(F)(F)F)cc4[nH]3)nc2)c(Cl)c1 [Compound 70, 6′-(4-bromo-6-trifluoromethyl-1H-benzoimidazol-2-yl)-3-chloro-5-vinyl-[2,3′]bipyridinyl] | 0%
COC(=O)c1cnc(-c2ccc(-c3nc4ccc(N5CCOCC5)cc4[nH]3)nc2)c(Cl)c1 [Compound 71, 3-chloro-6′-(6-morpholin-4-yl-1H-benzoimidazol-2-yl)-[2,3′]bipyridinyl-5-carboxylic acid methyl ester] | 7.1%
COC(=O)c1cnc(-c2ccc(-c3nc4ccc(C(C)(C)C)cc4[nH]3)nc2)c(Cl)c1 [Compound 74, 6′-(6-tert-butyl-1H-benzoimidazol-2-yl)-3-chloro-[2,3′]bipyridinyl-5-carboxylic acid methyl ester] | 81.3%
COC(=O)c1cnc(-c2ccc(-c3nc4ccc(Br)cc4[nH]3)nc2)c(Cl)c1 [Compound 75, 6′-(6-bromo-1H-benzoimidazol-2-yl)-3-chloro-[2,3′]bipyridinyl-5-carboxylic acid methyl ester] | 45.3%
COC(=O)c1cnc(-c2ccc(-c3nc4ncc(Br)cc4[nH]3)nc2)c(Cl)c1 [Compound 76, 6′-(6-bromo-1H-imidazo[4,5-b]pyridin-2-yl)-3-chloro-[2,3′]bipyridinyl-5-carboxylic acid methyl ester] | 7%
COC(=O)c1cnc(-c2ccc(-c3nc4c(Br)cc(C(F)(F)F)cc4[nH]3)nc2)c(Cl)c1 [Compound 77, 6′-(4-bromo-6-trifluoromethyl-1H-benzoimidazol-2-yl)-3-chloro-[2,3′]bipyridinyl-5-carboxylic acid methyl ester] | 48.9%
COC(=O)c1cnc(-c2ccc(-c3nc4c(Br)cc(Br)cc4[nH]3)nc2)c(Cl)c1 [Compound 78, 3-chloro-6′-(4,6-dibromo-1H-benzoimidazol-2-yl)-[2,3′]bipyridinyl-5-carboxylic acid methyl ester] | 4.1%
O=C(O)c1cnc(-c2ccc(-c3nc4ccc(N5CCOCC5)cc4[nH]3)nc2)c(Cl)c1 [Compound 79, 3-chloro-6′-(6-morpholin-4-yl-1H-benzoimidazol-2-yl)-[2,3′]bipyridinyl-5-carboxylic acid] | 3.3%
CN1CCN(c2ccc3nc(-c4ccc(-c5ncc(C(=O)O)cc5Cl)cn4)[nH]c3c2)CC1 [Compound 80, 3-chloro-6′-[6-(4-methyl-piperazin-1-yl)-1H-benzoimidazol-2-yl]-[2,3′]bipyridinyl-5-carboxylic acid] | -5%
O=C(O)c1cnc(-c2ccc(-c3nc4ccc(C(F)(F)F)cc4[nH]3)nc2)c(Cl)c1 [Compound 81, 3-chloro-6′-(6-trifluoromethyl-1H-benzoimidazol-2-yl)-[2,3′]bipyridinyl-5-carboxylic acid] | 9.6%

The next lines start with the values.

inhibition at 0.2 µM | Compound
6.7% | CC(C)(C)c1ccc2nc(-c3ccc(-c4ncc(C(=O)O)cc4Cl)cn3)[nH]c2c1 [Compound 82, 6′-(6-tert-butyl-1H-benzoimidazol-2-yl)-3-chloro-[2,3′]bipyridinyl-5-carboxylic acid]
22.8% | O=C(O)c1cnc(-c2ccc(-c3nc4ccc(Br)cc4[nH]3)nc2)c(Cl)c1 [Compound 83, 6′-(6-bromo-1H-benzoimidazol-2-yl)-3-chloro-[2,3′]bipyridinyl-5-carboxylic acid]
6.3% | O=C(O)c1cnc(-c2ccc(-c3nc4ncc(Br)cc4[nH]3)nc2)c(Cl)c1 [Compound 84, 6′-(6-bromo-1H-imidazo[4,5-b]pyridin-2-yl)-3-chloro-[2,3′]bipyridinyl-5-carboxylic acid]
4.2% | O=C(O)c1cnc(-c2ccc(-c3nc4c(Br)cc(C(F)(F)F)cc4[nH]3)nc2)c(Cl)c1 [Compound 85, 6′-(4-bromo-6-trifluoromethyl-1H-benzoimidazol-2-yl)-3-chloro-[2,3′]bipyridinyl-5-carboxylic acid]
3.7% | OCc1cnc(-c2ccc(-c3nc4ccc(N5CCOCC5)cc4[nH]3)nc2)c(Cl)c1 [Compound 87, [3-chloro-6′-(6-morpholin-4-yl-1H-benzoimidazol-2-yl)-[2,3′]bipyridinyl-5-yl]-methanol]
15.3% | CN1CCN(c2ccc3nc(-c4ccc(-c5ncc(CO)cc5Cl)cn4)[nH]c3c2)CC1 [Compound 88, {3-chloro-6′-[6-(4-methyl-piperazin-1-yl)-1H-benzoimidazol-2-yl]-[2,3′]bipyridinyl-5-yl}-methanol]
30% | OCc1cnc(-c2ccc(-c3nc4ccc(C(F)(F)F)cc4[nH]3)nc2)c(Cl)c1 [Compound 89, [3-chloro-6′-(6-trifluoromethyl-1H-benzoimidazol-2-yl)-[2,3′]bipyridinyl-5-yl]-methanol]
42.7% | CC(C)(C)c1ccc2nc(-c3ccc(-c4ncc(CO)cc4Cl)cn3)[nH]c2c1 [Compound 90, [6′-(6-tert-butyl-1H-benzoimidazol-2-yl)-3-chloro-[2,3′]bipyridinyl-5-yl]-methanol]
27.6% | OCc1cnc(-c2ccc(-c3nc4ccc(Br)cc4[nH]3)nc2)c(Cl)c1 [Compound 91, [6′-(6-bromo-1H-benzoimidazol-2-yl)-3-chloro-[2,3′]bipyridinyl-5-yl]-methanol]
7.3% | OCc1cnc(-c2ccc(-c3nc4ncc(Br)cc4[nH]3)nc2)c(Cl)c1 [Compound 92, [6′-(6-bromo-1H-imidazo[4,5-b]pyridin-2-yl)-3-chloro-[2,3′]bipyridinyl-5-yl]-methanol]
41% | OCc1cnc(-c2ccc(-c3nc4c(Br)cc(C(F)(F)F)cc4[nH]3)nc2)c(Cl)c1 [Compound 93, [6′-(4-bromo-6-trifluoromethyl-1H-benzoimidazol-2-yl)-3-chloro-[2,3′]bipyridinyl-5-yl]-methanol]
9.8% | OCc1cnc(-c2ccc(-c3nc4c(Br)cc(Br)cc4[nH]3)nc2)c(Cl)c1 [Compound 94, [3-chloro-6′-(4,6-dibromo-1H-benzoimidazol-2-yl)-[2,3′]bipyridinyl-5-yl]-methanol]
-0.6% | CCNC(=O)c1cnc(-c2ccc(-c3nc4ccc(N5CCOCC5)cc4[nH]3)nc2)c(Cl)c1 [Compound 95, 3-chloro-6′-(6-morpholin-4-yl-1H-benzoimidazol-2-yl)-[2,3′]bipyridinyl-5-carboxylic acid ethyl amide]
13.3% | CCNC(=O)c1cnc(-c2ccc(-c3nc4ccc(C(F)(F)F)cc4[nH]3)nc2)c(Cl)c1 [Compound 97, 3-chloro-6′-(6-trifluoromethyl-1H-benzoimidazol-2-yl)-[2,3′]bipyridinyl-5-carboxylic acid ethyl amide]
13.2% | CCNC(=O)c1cnc(-c2ccc(-c3nc4ccc(C(C)(C)C)cc4[nH]3)nc2)c(Cl)c1 [Compound 98, 6′-(6-tert-butyl-1H-benzoimidazol-2-yl)-3-chloro-[2,3′]bipyridinyl-5-carboxylic acid ethyl amide]
17.5% | CCNC(=O)c1cnc(-c2ccc(-c3nc4ccc(Br)cc4[nH]3)nc2)c(Cl)c1 [Compound 99, 6′-(6-bromo-1H-benzoimidazol-2-yl)-3-chloro-[2,3′]bipyridinyl-5-carboxylic acid ethyl amide]
